According to patent US11191811B2, “Osteocalcin as a treatment for frailty associated with aging” (THE TRUSTEES OF COLUMBIA UNIVERSITY IN THE CITY OF NEW YORK, priority 2014, dated 2021):

Columns and labels:
mice = test: Mouse asthma model (albumin sensitisation, nebulized albumin); type: in vivo; settings: osteocalcin given by nebulization together with the nebulized albumin
From the text: In a mouse asthma model that involves intraperitoneal injection of albumin (to sensitize the mice) followed a week later by nebulized administration of albumin to the lungs of the mice, osteocalcin given by nebulization together with the nebulized albumin prevented the bronchoconstriction that would have otherwise been observed.

Gprc6a−/− myotubes [1] = test: 14C-oleate (fatty acid) oxidation in myotubes; type: cell-based, mouse
Procedure: (§1) Glucose and insulin tolerance tests were performed as previously described (Lee et al., 2007, Cell 130:456-469). For in vivo glucose uptake, a bolus of 2-deoxy-d-[^3H]glucose (^3H-2-DG, Perkin Elmer) (10 μCi) was administered before an endurance run. ^3H-2-DG and ^3H-2-DG-6-P content in muscle was determined by liquid scintillation counter and normalized to muscle weight. Glucose uptake and fatty acid oxidation assays in myotubes were performed as previously described (Sebastian et al., 2007, Am. J. Physiol. Endocrinol. Metab. 292:E667-686). GLUT4 translocation was determined by flow cytometry using an antibody against the extracellular domain of the GLUT4 protein (Santa Cruz, Sc-1606). Measurements of oxygen consumption rates (OCR) in isolated myofibers were performed using a XF24 Seahorse Analyzer® (Seahorse Biosciences). To analyze mitochondrial function, myofibers were treated with three compounds in succession (oligomycin 10 μg/ml, FCCP 200 μM, rotenone 0.2 μM) and OCR was recorded following administration of each of them.
(§2) Culture of skeletal muscle myoblasts from 7 day-old mice was performed as described (Gharaibeh et al., 2008, Nature Protocols 3:1501-1509). Myoblasts were differentiated into myotubes for 3-4 days in a medium containing 5% horse serum. Muscle fibers were isolated from flexor digitorum brevis muscle. Muscles were dissected with DMEM 2% collagenase for 2 hours at 37° C., in a 5% CO2 incubator. Muscle fibers were disaggregated from the tissue using a wide bore pipet and plated in matrigel-coated plates at approximately 50% confluence. After overnight incubation, isolated myofibers were used.

WT myotubes = test: 14C-oleate (fatty acid) oxidation in myotubes; type: cell-based, mouse
Procedure: as §1, §2

muscle = test: S6K phosphorylation and protein synthesis; settings: FIG. 23; for protein synthesis: in muscle
From the text: FIG. 23. Osteocalcin promotes S6K phosphorylation and protein synthesis.
It has been shown that in muscle osteocalcin favors glucose uptake, glycolysis, fatty acid oxidation, and protein synthesis.

wild-type = test: Glycolysis, extracellular acidification rate (ECAR); type: cell-based, mouse; settings: ECAR (FIG. 20); in muscle
From the text: FIG. 20. Osteocalcin favors glycolysis. (a) Effect of increasing amounts of uncarboxylated osteocalcin on change in extracellular acidification rate (ECAR) in wild-type mice. The effect of insulin is also shown for comparison. (B) Effect of uncarboxylated osteocalcin on ECAR of wild-type and Gprc6a^−/− mice. (C) L-lactate production in wild-type and Gprc6a^−/− mice.

Gprc6a−/− myotubes [2] = test: Gene expression (qPCR) in myotubes treated with Ocn; type: cell-based, mouse
Procedure: Serum osteocalcin, PINP, CTX, and insulin levels were measured using ELISA assays. Blood glucose level was measured using an Accu-Check glucometer. Urine 3-MHT was measured as previously described (Aranibar et al., 2011, Anal. Biochem. 410:84-91). Determination of cAMP accumulation was performed using a commercial kit (R&D). For gene expression, 1 μg of total RNA was reverse transcribed into cDNA. qPCR analyses were performed using a SYBER green master mix (Applied Biosciences) and a CFX-Connect real time PCR (Bio-Rad). Relative expression levels of each gene were normalized to that of Hprt or Gapdh. For in situ hybridization, muscle was frozen in liquid N2-cooled methylbutane. Samples were sectioned at 10 μm using a cryostat. In situ hybridization was performed with a DIG-labeled riboprobe as previously described (Oury et al., 2011, Cell 144:796-809).
as §2, with “After overnight incubation, isolated myofibers were used.” left out

wild type mice [3] = test: Insulin sensitivity test after subcutaneous infusion; type: in vivo, mouse; settings: 0.3 or 3 ng/hour subcutaneously for 18 days, 0-120 minutes after insulin injection
Procedure: FIG. 3. Osteocalcin subcutaneous infusion increases insulin sensitivity in wild-type mice. Wild-type mice were infused subcutaneously with indicated doses of recombinant osteocalcin or PBS for 18 days before receiving a single injection of insulin. Blood glucose was measured thereafter at indicated times.
The effect of uncarboxylated osteocalcin on insulin sensitivity was also examined. Wild type mice were infused subcutaneously with 0.3 or 3 ng/hour doses of recombinant osteocalcin or PBS for 18 days before receiving a single injection of insulin. Blood glucose was measured thereafter at the indicated times from 0-120 minutes after injection.

wild type mice [4] = test: Body weight and gonadal fat pad mass during subcutaneous infusion; type: in vivo, mouse
Procedure: FIG. 4. Osteocalcin subcutaneous infusion decreases fat mass in wild-type mice. (A) Indicated doses of recombinant osteocalcin or PBS were infused subcutaneously for 28 days in wild-type mice. Body weight was recorded at indicated days. (B) Gonadal fat pad mass was measured after 28 days.
In another in vivo experiment, the effect of uncarboxylated osteocalcin on body weight and fat pad mass was monitored (FIG. 4). Wild type mice were infused subcutaneously for 28 days with PBS or uncarboxylated osteocalcin at 0.3, 1 or 3 ng/hour. […] Gonadal fat pad mass, measured after 28 days, decreased by about %18 with 3 ng/hour uncarboxylated osteocalcin treatment.

C2C12 myoblasts = test: GLUT4 translocation to the plasma membrane (flow cytometry); type: cell-based
From the text: Rather, it promoted the translocation of GLUT4 to the plasma membrane of C2C12 myoblasts that express both Gprc6a and Glut4. A similar increase in the accumulation of GLUT4 was observed after exercise in WT but not in Gprc6aMck−/− mice (FIG. 26I). Signaling through GPCRs can favor PI3K activation, leading to Akt phosphorylation, an event that favors the translocation of GLUT4 to the plasma membrane (Lopez-Ilasaca et al., 1997, Science 275:394-397). In agreement with this notion, Akt phosphorylation in muscles of Gprc6Mck−/− mice was decreased compared to muscles of control mice after exercise. […]
as §1, with “Glucose uptake and fatty acid oxidation assays in myotubes were performed as previously described (Sebastian et al., 2007, Am. J. Physiol. Endocrinol. Metab. 292:E667-686).” left out, “Measurements of oxygen consumption rates (OCR) in isolated myofibers were performed using a XF24 Seahorse Analyzer® (Seahorse Biosciences).” left out

uncarboxylated osteocalcin: Recombinant uncarboxylated mouse osteocalcin, bacterially produced, purified on glutathione beads and cleaved from the GST subunit by thrombin (YLGASVPSPDPLEPTREQCELNPACDELSDQYGLKTAYKRIYGITI)
bronchoconstriction (mice): prevented
14C-oleate oxidation (Gprc6a−/− myotubes [1]): could not increase
14C-oleate oxidation (WT myotubes; WT myotubes): increase
fatty acid oxidation (WT myotubes; summary statement, in muscle): favors
S6K phosphorylation (muscle): promotes
protein synthesis (muscle; listed as Osteocalcin): promotes
protein synthesis (muscle; listed as osteocalcin): favors
glycolysis (wild-type): favors
expression of Il6 (Gprc6a−/− myotubes [2]): not
insulin sensitivity (wild type mice [3]): increased
insulin sensitivity (wild type mice [3]; listed as Osteocalcin): increases
decrease of gonadal fat pad mass (wild type mice [4]; 3 ng/hour, after 28 days): ~18%
body weight (wild type mice [4]; 0.3, 1 or 3 ng/hour subcutaneously for 28 days, highest dose most effective): slightly reduced
fat mass (wild type mice [4]; subcutaneous infusion 28 days (FIG. 4 title)): decreases
gonadal fat pad mass (wild type mice [4]; the other doses (0.3, 1 ng/hour), 28 days): did not significantly decrease
translocation of GLUT4 to the plasma membrane (C2C12 myoblasts): promoted
